Measured values published in ChEMBL document CHEMBL1201862, “PubChem BioAssay data set” (2004).
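Five concentrations, 48 hours, 96-well plates. Abbreviation: GI50, concentration required for 50% inhibition of growth.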 Activity calls are given as the source filed them. No stated cut-off is given here; in the data, active = GI50 up to about 1.1 µM and inactive = higher.

Tests used:
Assay in all cases: NCI-60 cell line screen, 48 h
K562 = test system: K562
MDA-MB-435 = test system: MDA-MB-435
MOLT-4 = test system: MOLT-4
SF-539 = test system: SF-539
SNB-19 = test system: SNB-19
COLO 205 = test system: COLO 205
PC-3 = test system: PC-3
OVCAR-3 = test system: OVCAR-3
CAKI-1 = test system: CAKI-1
BT-549 = test system: BT-549
786-0 = test system: 786-0
Malme-3M = test system: Malme-3M
T47D = test system: T47D
NCI-H460 = test system: NCI-H460
HOP-92 = test system: HOP-92
M14 = test system: M14
MCF7 = test system: MCF7
SF-268 = test system: SF-268
SK-OV-3 = test system: SK-OV-3

## O=C1C=C(Nc2nc(O)cc(C(=O)O)n2)c2ccccc2C1=O
K562
  GI50: > 100 µM (inactive)
MDA-MB-435
  GI50: 37.8 µM (inactive)
MOLT-4
  GI50: > 100 µM (inactive)
SF-539
  GI50: > 100 µM (inactive)
SNB-19
  GI50: > 100 µM (inactive)
COLO 205
  GI50: > 100 µM (inactive)
PC-3
  GI50: > 100 µM (inactive)
OVCAR-3
  GI50: > 100 µM (inactive)
CAKI-1
  GI50: > 100 µM (inactive)
BT-549
  GI50: > 100 µM (inactive)
786-0
  GI50: > 100 µM (inactive)
Malme-3M
  GI50: > 100 µM (inactive)
T47D
  GI50: > 100 µM (inactive)
NCI-H460
  GI50: > 100 µM (inactive)
HOP-92
  GI50: > 100 µM (inactive)
M14
  GI50: > 100 µM (inactive)
MCF7
  GI50: > 100 µM (inactive)
SF-268
  GI50: > 100 µM (inactive)
SK-OV-3
  GI50: > 100 µM (inactive)

## CCOC(=O)CN1CC(C2=C(O)CN(CC(=O)OCC)C2=O)=CC1=O
K562
  GI50: > 100 µM (inactive)
MDA-MB-435
  GI50: > 100 µM (inactive)
MOLT-4
  GI50: > 100 µM (inactive)
SF-539
  GI50: > 100 µM (inactive)
SNB-19
  GI50: > 100 µM (inactive)
COLO 205
  GI50: > 100 µM (inactive)
PC-3
  GI50: > 100 µM (inactive)
OVCAR-3
  GI50: > 100 µM (inactive)
CAKI-1
  GI50: > 100 µM (inactive)
BT-549
  GI50: > 100 µM (inactive)
786-0
  GI50: > 100 µM (inactive)
Malme-3M
  GI50: > 100 µM (inactive)
T47D
  GI50: > 100 µM (inactive)
NCI-H460
  GI50: > 100 µM (inactive)
HOP-92
  GI50: > 100 µM (inactive)
M14
  GI50: > 100 µM (inactive)
MCF7
  GI50: > 100 µM (inactive)
SF-268
  GI50: > 100 µM (inactive)
SK-OV-3
  GI50: > 100 µM (inactive)

## Nc1nc(OCC2CCCCC2)c2nc[nH]c2n1
K562
  GI50: 29.1 µM (inactive)
MDA-MB-435
  GI50: 13.7 µM (inactive)
MOLT-4
  GI50: 8.47 µM (inactive)
SF-539
  GI50: 11.5 µM (inactive)
SNB-19
  GI50: 25.2 µM (inactive)
COLO 205
  GI50: 13 µM (inactive)
PC-3
  GI50: 10.8 µM (inactive)
OVCAR-3
  GI50: 9.25 µM (inactive)
CAKI-1
  GI50: 7.24 µM (inactive)
BT-549
  GI50: 13.9 µM (inactive)
786-0
  GI50: 17 µM (inactive)
Malme-3M
  GI50: 5.73 µM (inactive)
T47D
  GI50: 6.98 µM (inactive)
NCI-H460
  GI50: 8.38 µM (inactive)
HOP-92
  GI50: 10.3 µM (inactive)
M14
  GI50: 8.73 µM (inactive)
MCF7
  GI50: 0.957 µM (active)
SF-268
  GI50: 11.2 µM (inactive)
SK-OV-3
  GI50: 14.9 µM (inactive)

## C=C1C(=O)O[C@@H]2C[C@@]3(C)CCCC(=C)[C@@H]3C[C@H]12.C=C1C(=O)O[C@@H]2C[C@@]3(C)CCC[C@H](C)C3=C[C@H]12
K562
  GI50: 2.04 µM (inactive)
MDA-MB-435
  GI50: 1.54 µM (inactive)
MOLT-4
  GI50: 1.34 µM (inactive)
SF-539
  GI50: 2.13 µM (inactive)
SNB-19
  GI50: 9.33 µM (inactive)
COLO 205
  GI50: 1.55 µM (inactive)
PC-3
  GI50: 3.2 µM (inactive)
OVCAR-3
  GI50: 1.61 µM (inactive)
CAKI-1
  GI50: 1.69 µM (inactive)
BT-549
  GI50: 1.45 µM (inactive)
786-0
  GI50: 1.43 µM (inactive)
Malme-3M
  GI50: 0.731 µM (active)
T47D
  GI50: 1.09 µM (active)
NCI-H460
  GI50: 3.75 µM (inactive)
HOP-92
  GI50: 1.9 µM (inactive)
M14
  GI50: 1.42 µM (inactive)
MCF7
  GI50: 1.73 µM (inactive)
SF-268
  GI50: 2.55 µM (inactive)
SK-OV-3
  GI50: 9.79 µM (inactive)

## CCc1ccccc1NNc1cc(=O)[nH]c(=O)[nH]1
K562
  GI50: 27 µM (inactive)
MDA-MB-435
  GI50: 19.1 µM (inactive)
MOLT-4
  GI50: 26.7 µM (inactive)
SF-539
  GI50: 22.6 µM (inactive)
SNB-19
  GI50: 20.3 µM (inactive)
COLO 205
  GI50: 18 µM (inactive)
PC-3
  GI50: 16.6 µM (inactive)
OVCAR-3
  GI50: 17.1 µM (inactive)
CAKI-1
  GI50: 4.09 µM (inactive)
BT-549
  GI50: 19.4 µM (inactive)
786-0
  GI50: 16.6 µM (inactive)
Malme-3M
  GI50: > 10 µM (inactive)
T47D
  GI50: 17.9 µM (inactive)
NCI-H460
  GI50: 22.9 µM (inactive)
HOP-92
  GI50: 16.6 µM (inactive)
M14
  GI50: 18.5 µM (inactive)
MCF7
  GI50: 19.4 µM (inactive)
SF-268
  GI50: > 10 µM (inactive)
SK-OV-3
  GI50: 22.6 µM (inactive)

## CC(C)=CCC[C@@H](C)c1c2nc3ccccc3sc-2c(C)c(=O)c1O
K562
  GI50: 8.22 µM (inactive)
MDA-MB-435
  GI50: 10.6 µM (inactive)
MOLT-4
  GI50: 2.32 µM (inactive)
SF-539
  GI50: 3.01 µM (inactive)
SNB-19
  GI50: 38.5 µM (inactive)
COLO 205
  GI50: 18.8 µM (inactive)
PC-3
  GI50: 8.34 µM (inactive)
OVCAR-3
  GI50: 9.35 µM (inactive)
CAKI-1
  GI50: 2.82 µM (inactive)
BT-549
  GI50: 31 µM (inactive)
786-0
  GI50: 4.9 µM (inactive)
Malme-3M
  GI50: 2.93 µM (inactive)
T47D
  GI50: 3.45 µM (inactive)
NCI-H460
  GI50: 2.22 µM (inactive)
HOP-92
  GI50: 18.9 µM (inactive)
M14
  GI50: 4.75 µM (inactive)
MCF7
  GI50: 8.3 µM (inactive)
SF-268
  GI50: 3.99 µM (inactive)
SK-OV-3
  GI50: 7.74 µM (inactive)
